We go through six compounds from patent US20070061084A1, “Method, system, and knowledge repository for identifying a secondary metabolite from a microorganism” (Ecopia BioSciences, Inc., priority 2002, published 2007).

In brackets after ≈: the same amount, converted by molar mass.

For orientation: inhibition means the relative decrease from the control value, in per cent. In general, Kd refers to the free concentration of one partner at which half of the binding sites on the other are occupied at equilibrium, for simple one-to-one binding.

Experiment [1] has as its system Saccharomyces cerevisiae FHCRC 50514. Put plainly: Disk diffusion assay, antifungal bioactivity. It counts as cell-based. Conditions: 37° C., 24 hours. How it is done: Antifungal bioactivity of Compound 1 (0506), in comparison to Amphotericin B, against Saccharomyces cerevisiae FHCRC 50514 was determined using a disk diffusion assay. Such an assay is commonly used to reveal activity of antifungal drugs against fungi (Wong G K, Griffith S, Kojima I and Demain A L, J. Antibiotics, 51(5): 487-491, 1998).
Inoculum (100 μL) was added to 100 mL of RPMI agar (kept at 55° C.) to give a final suspension of about 1×10^5 CFU/mL, and poured into 150 mm Petri dishes. Plates were used immediately upon setting of the agar.
Compound 1 (0506) was diluted in DMSO to a concentration of 3.2 mg/mL. A 20 μL sample (64 μg) was deposited on the agar surface of prepared plates. Amphotericin solution in DMSO (5 mg/mL; 10 μL; 50 μg) was also deposited, in a separate location, on the agar surface. A negative control (10 μL of stock solution) was also deposited in a separate location on the surface of the agar. The plates were incubated at 37° C. for 24 hours.
In general terms: In agar diffusion tests the substance spreads into inoculated agar from a disc or well.

For experiment [2], the target named is T1, Angiotensin Converting Enzyme (Oryctolagus cuniculus, UniProt P12822).
T1 construct: ACE: Source: rabbit lung; from tissue; host or cells: rabbit lung
T1 sequence (P12822 34-1310): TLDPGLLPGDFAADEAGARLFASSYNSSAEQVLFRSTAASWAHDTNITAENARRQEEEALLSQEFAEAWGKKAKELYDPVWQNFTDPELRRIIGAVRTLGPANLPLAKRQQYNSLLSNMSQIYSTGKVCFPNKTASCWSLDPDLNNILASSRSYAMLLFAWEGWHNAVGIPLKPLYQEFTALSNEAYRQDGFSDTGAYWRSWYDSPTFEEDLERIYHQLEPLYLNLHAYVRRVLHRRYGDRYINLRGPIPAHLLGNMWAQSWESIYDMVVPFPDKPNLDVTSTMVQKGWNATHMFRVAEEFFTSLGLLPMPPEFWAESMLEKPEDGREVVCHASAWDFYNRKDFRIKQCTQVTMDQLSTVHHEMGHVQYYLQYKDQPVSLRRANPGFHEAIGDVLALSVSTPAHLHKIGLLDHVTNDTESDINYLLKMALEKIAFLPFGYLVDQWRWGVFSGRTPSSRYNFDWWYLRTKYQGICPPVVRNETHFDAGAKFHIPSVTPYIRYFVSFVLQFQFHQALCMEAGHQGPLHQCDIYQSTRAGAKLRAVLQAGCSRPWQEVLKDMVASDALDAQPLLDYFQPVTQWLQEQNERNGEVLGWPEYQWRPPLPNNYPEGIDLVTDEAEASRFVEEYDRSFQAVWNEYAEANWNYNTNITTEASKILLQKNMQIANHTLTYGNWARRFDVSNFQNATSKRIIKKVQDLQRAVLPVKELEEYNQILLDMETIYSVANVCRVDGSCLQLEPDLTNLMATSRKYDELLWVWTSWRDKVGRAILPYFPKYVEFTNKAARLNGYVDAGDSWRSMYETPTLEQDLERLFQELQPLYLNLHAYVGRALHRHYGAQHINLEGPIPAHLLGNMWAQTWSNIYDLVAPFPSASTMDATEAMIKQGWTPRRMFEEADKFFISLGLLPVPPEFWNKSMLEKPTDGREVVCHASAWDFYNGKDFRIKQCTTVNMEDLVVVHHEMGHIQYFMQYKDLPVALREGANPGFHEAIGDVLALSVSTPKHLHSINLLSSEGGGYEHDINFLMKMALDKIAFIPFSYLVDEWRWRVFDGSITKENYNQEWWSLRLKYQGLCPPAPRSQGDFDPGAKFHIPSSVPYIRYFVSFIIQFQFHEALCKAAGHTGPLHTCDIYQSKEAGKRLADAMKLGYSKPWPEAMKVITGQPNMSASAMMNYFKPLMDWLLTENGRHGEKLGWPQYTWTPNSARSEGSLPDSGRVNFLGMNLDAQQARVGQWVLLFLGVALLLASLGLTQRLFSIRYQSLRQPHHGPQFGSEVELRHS
Put plainly: ACE enzyme inhibition assay (spectrometric quantitation of FAPGG). The format is biochemical. Conditions: 10 μM in 1% DMSO; rabbit lung enzyme.

The target in experiment [3] is T2, Protein Serine/Threonine Kinase MEK1 (Oryctolagus cuniculus, UniProt P29678).
T2 construct: made in house; host or cells: E. coli
T2 sequence (P29678 whole entry): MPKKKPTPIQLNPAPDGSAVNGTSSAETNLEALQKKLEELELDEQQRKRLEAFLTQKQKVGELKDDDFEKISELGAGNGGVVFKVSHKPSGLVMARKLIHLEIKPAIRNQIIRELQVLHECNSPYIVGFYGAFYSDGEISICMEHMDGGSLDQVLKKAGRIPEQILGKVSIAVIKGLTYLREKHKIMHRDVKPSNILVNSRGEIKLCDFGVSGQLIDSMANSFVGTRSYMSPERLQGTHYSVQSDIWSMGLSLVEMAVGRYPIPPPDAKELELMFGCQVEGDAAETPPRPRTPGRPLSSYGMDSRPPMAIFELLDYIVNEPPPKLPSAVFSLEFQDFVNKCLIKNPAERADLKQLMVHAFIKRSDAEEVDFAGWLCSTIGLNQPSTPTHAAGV
Put plainly: MEK1 enzyme inhibition assay (Elisa quantitation of MBP-P). It counts as biochemical. The note with it: 10 μM in 1% DMSO; rabbit recombinant E. coli.

Experiment [4] has as its target T3, Adenosine A3 Receptor (Homo sapiens, UniProt P0DMS8).
T3 sequence (P0DMS8 1-318): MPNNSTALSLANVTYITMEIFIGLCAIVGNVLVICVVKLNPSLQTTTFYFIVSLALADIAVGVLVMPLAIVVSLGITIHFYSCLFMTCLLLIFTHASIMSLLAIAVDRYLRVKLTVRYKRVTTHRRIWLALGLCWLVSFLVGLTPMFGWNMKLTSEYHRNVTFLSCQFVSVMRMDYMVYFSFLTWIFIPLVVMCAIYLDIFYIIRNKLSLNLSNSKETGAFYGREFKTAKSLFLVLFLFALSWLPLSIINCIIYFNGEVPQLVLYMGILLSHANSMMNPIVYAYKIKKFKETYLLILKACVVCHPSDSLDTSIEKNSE
As to the kind of experiment: Adenosine A3 radioligand binding assay. Conditions: 10 μM in 1% DMSO; human recombinant CHO-K1 cells; negative value = stimulation of binding. Also noted: expressed in transfected cells; host or cells: CHO-K1 cells.

The subject of experiment [5] is Saccharomyces cerevisiae Δpdr1/pdr3/erg6 (FHCRC 50514). Put plainly: Broth dilution antifungal susceptibility (NCCLS M27A), MIC. Conditions: 48 h, read-out: minimum inhibitory concentration (MIC). (Broth dilution looks for growth in wells or tubes with falling amounts of substance.)
Experiment [6] deals with T3, Adenosine A3 Receptor. Conditions: radioligand, historical value; cited from earlier work.
In experiment [7] the test system is Candida indicators. As to the kind of experiment: Bioactivity screen of HPLC/MS fractions of organism 100 extracts. The format is cell-based. Conditions: compound of mass 1113 Da from organism 100 extracts. Here is the method:
An extract containing the putative polyene was obtained from organism 100 using a metabolomic approach to identify conditions under which the product of locus 100C was expressed. This approach obtains analytical measurement of all low molecular weight metabolites in a given organism at a specific time when grown under specific culture conditions. Organism 100 was grown in 48 different media, namely AA, AB, AC, BA, CA, CB, CI, DA, DY, DZ, EA, ES, ET, FA, GA, IB, JA, KA, KE, LA, MA, MC, MU, NA, NE, NF, NG, OA, PA, PB, QB, RA, RB, RC, RM, SF, SP, TA, VA, VB, WA, WS, XA, YA, ZA. Metabolites were extracted from whole cell cultures by adding of an equal volume of methanol. After removal of solid debris, the extract was concentrated and injected into an HPLC/MS system in which the metabolites were analyzed to obtain UV and mass data and purified fractions are collected in 96-well plates and assayed for multiple activities including antibiotic activity against gram-positive and gram-negative bacteria, and fungi.
Finally, the extracts generated by growth of organism 100 under each of the 48 media were analyzed for metabolites having physical, chemical and biological characteristics of polyenes. […]

Turning to `C[C@@H]1[C@H](O)[C@@H](C)/C=C/C=C/C=C/C=C/C=C/C=C/C=C/[C@H](O[C@@H]2O[C@H](C)[C@@H](O)[C@H](N)[C@@H]2O)C[C@@H]2O[C@](O)(C[C@@H](O)C[C@@H](O)[C@H](O)CC[C@@H](O)C[C@@H](O)CC(=O)O[C@H]1C)C[C@H](O)[C@H]2C(=O)O` [Amphotericin B, reference compound], the “zone of inhibition (diameter)” value in experiment [1] (at 50 μg deposited on agar) worked out at 23.9 mm. On to `CNC(CCCN(O)C(=O)C(CO)NC(=O)C(N)CCCN(C=O)C(=N)N)C(=O)NC(CO)C(=O)NC(CO)C(=O)NC(CCC(N)=O)C(=O)O` (stereo not drawn) [Compound 1 (0506)], for which, in experiment [1] (at 64 μg deposited on agar), the “zone of inhibition (diameter)” value worked out at 36.4 mm. Further, the figures for the inhibition at 10 µM in experiment [2], in experiment [3] and in experiment [4] were 50%, 63% and -101%, respectively. As for `C/C=C(\C)C(O)C(C)/C=C/C=C(\C)CCC(O)CC1=C(C)C(=O)C(C)(O)O1` (stereo not drawn) [Compound 2], in experiment [5], the MIC came out at 64 µg/mL (≈ 169 µM). Still for that read-out and setting: the same measure for `OC(Cn1cncn1)(Cn1cncn1)c1ccc(F)cc1F` [Fluconazole, reference compound]: 0.25 to 0.5 µg/mL (≈ 0.816 to 1.63 µM).

Regarding `COc1cc2nc(N3CCN(C(=O)c4ccco4)CC3)nc(N)c2cc1OC` [[H3] Prazosin, Prazosin], the Kd in experiment [6] is 290 pM. Turning to `CC1/C=C/C=C/C=C/C=C/C=C/C=C/C=C/C(OC2O[C@H](C)C(O)[C@H](N)C2O)CC2OC(O)(CC(O)CC(O)CC(O)CC(O)C[C@H](O)CC(O)CC(=O)OC1C(C)CCC(O)CC(=O)c1ccc(N)cc1)CC(O)C2C(=O)O` (stereo partly drawn) [ayfactin], the antifungal activity entry in experiment [7] is listed as “antifungal activity”.
